Data: US20080299076A1, “Compunds and compositions that cause non-apoptotic cell death and uses thereof” (priority 2006, published 2008)

Legend:
Hs 925.T = test: Response of tumor cell lines to erastin (dose-response); format: cell-based
Protocol: (§1) Given that oncogenic RAS activates at least four downstream pathways, analysis was performed to identify which downstream effects were necessary for erastin sensitivity. In certain embodiments, the invention provides that erastin inhibits growth and kills genuine tumor cells with RAS mutations. In other embodiments, the invention provides measures of the dose-response of 29 tumor cell lines to erastin, wherein there is at least 50% inhibition of viability in 18 of the cell lines (Table 4). Numerous sarcoma-derived tumor cell lines were sensitive to erastin, consistent with the fact that erastin was discovered in an engineered tumor cell line created from human fibroblasts.

SJSA-1 = test: as above; format: cell-based
Protocol: as §1

SK-ES-1 = test: as above; format: cell-based
Protocol: as §1

SK-LMS-1 = test: as above; format: cell-based
Protocol: as §1

SK-N-MC = test: as above; format: cell-based
Protocol: as §1

SK-UT = test: as above; format: cell-based
Protocol: as §1

SVR = test: as above; format: cell-based
Protocol: as §1

SW982 = test: as above; format: cell-based; details: SW982, synovial sarcoma
Protocol: as §1

TC32 = test: as above; format: cell-based
Protocol: as §1

TC71 = test: as above; format: cell-based
Protocol: as §1

U973 = test: as above; format: cell-based
Protocol: as §1

A673 = test: as above; format: cell-based, human
Protocol: as §1

BJEH = test: as above; format: cell-based, human
Protocol: as §1

BJELR = test: as above; format: cell-based, human
Protocol: as §1

HT1080 = test: as above; format: cell-based, human
Protocol: as §1

[1] = test system: BJ-TERT/LT/ST/RAS^V12 cells; test: Mitochondrial membrane potential (JC-1 stain); format: cell-based, human; details: after 13 hours of treatment
Protocol: In certain embodiments, there is loss of mitochondrial membrane potential in >70% of BJ-TERT/LT/ST/RAS^V12 cells after 13 hours of erastin A1 treatment (JC-1 stain), and morphological changes in mitochondria examined by EM, consistent with the notion that erastin induces mitochondrial dysfunction.

[2] = test system: BJ-TERT/LT/ST/RAS^V12 cells; test: Cell death, viable cells counted using a hemacytometer; format: cell-based, human; details: 13 μM erastin A1, 23 μM antimycin, 126 μM 2-methoxyestradiol or the combinations
Caspase-3 = Caspase-3 cleavage (western blot); format: cell-based
VDAC2, VDAC3 = test: VDAC isoform levels after erastin treatment (quantitative 2D western); format: cell-based, human
Excerpt: Quantitative western blot of VDAC/eif4E protein ratio in engineered BJ-derived cells. (b) Identification of VDAC isoforms in BJ-TERT/LT/ST/RAS^V12 cells using 2-D electrophoresis. i) VDAC1, VDAC2 and VDAC3 were detected by a rabbit polyclonal VDAC antibody (Abcam/ab3434), ii) VDAC1 was detected by a mouse monoclonal VDAC1 antibody (Calbiochem/529534), iii) VDAC2 was detected by a goat polyclonal VDAC2 antibody (Abcam/ab22170), iv) An illustration of 3 isoforms of VDAC separated by the 2-D gel electrophoresis. (c) BJ-TERT/LT/ST/RAS^V12 cells were treated with erastin for the indicated time and levels of each VDAC isoform determined by quantitative 2D western. (d,e) Infection with VDAC3 shRNA protects erastin-treated cells. 293T cells were transfected with shRNA-plasmid construct using FuGene and viral supernatant transferred to HT1080 cells, and treated with erastin dilutions and viability measured using Trypan Blue exclusion. […] (f) Quantitative RT-PCR measurements of mRNA levels of the 3 VDAC isoforms after infection with shVDAC3. Knockdown was determined by normalizing to the levels in the shGFP-infected control. […] (g) Mitochondria were purified from yeast expressing murine VDAC3 in place of yeast VDAC, and the rate of NADH uptake determined in the presence or absence of erastin, or in shocked mitochondria in which the outer membrane was disrupted. […]

**Q.** Which results are given for `CCOc1ccccc1-n1c(C(C)N2CCN(C(=O)COc3ccc(Cl)cc3)CC2)nc2ccccc2c1=O` (stereo not shown) [erastin, 2-(1-{4-[2-(4-Chloro-phenoxy)-acetyl]-piperazin-1-yl}-ethyl)-3-(2-ethoxy-phenyl)-3H-quinazolin-4-one]?
**A.** EC50 (Hs 925.T): 17 µM; Max % killing (Hs 925.T; Pagetoid sarcoma): 83%; EC50 (SJSA-1; Homo sapiens, SJSA-1): 12 µM; Max % killing (SJSA-1; SJSA-1, Osteosarcoma): 100%; EC50 (SK-ES-1; Homo sapiens, SK-ES1, SK-ES-1): 7 µM; Max % killing (SK-ES-1; SK-ES-1, Ewing sarcoma): 96%; Erastin Sensitivity (maximum percent killing, as fraction) (SK-ES-1; SKES1): 0.96; EC50 (SK-LMS-1; Homo sapiens, SK-LMS-1): 6 µM; Max % killing (SK-LMS-1; SK-LMS-1, Leimyosarcoma, vulva): 100%; EC50 (SK-N-MC; Homo sapiens, SK-N-MC): 10 µM; Erastin Sensitivity (maximum percent killing, as fraction) (SK-N-MC; SK N MC): 0.95; Max % killing (SK-N-MC; SK-N-MC, Neuroepithelioma): 95%; EC50 (SK-UT): 4 µM; Max % killing (SK-UT; Uterine, mixed mesodermal tumor): 73%; EC50 (SVR; Mus musculus): 2.5 µM; Max % killing (SVR; Pancreatic carcinoma): 20%; Max % killing (SW982): 0%; EC50 (TC32; Homo sapiens, TC-32, TC32): 8 µM; Erastin Sensitivity (maximum percent killing, as fraction) (TC32; TC 32): 0.88; Max % killing (TC32; TC32, Peripheral neuroepithelioma): 88%; Erastin Sensitivity (maximum percent killing, as fraction) (TC71; TC 71): 0.92; Max % killing (TC71; TC71, Ewing sarcoma): 92%; EC50 (TC71; TC-71, TC71): 10 µM; Erastin Sensitivity (maximum percent killing, as fraction) (U973; U937): 0.73; Max % killing (U973; U973, Acute myelogenous leukemia): 73%; EC50 (U973; U-973, U973): 10 µM; Erastin Sensitivity (maximum percent killing, as fraction) (A673; A673): 0.54; Max % killing (A673; A673, Ewing sarcoma): 54%; EC50 (A673; Homo sapiens, A673): 30 µM; Erastin Sensitivity (maximum percent killing, as fraction) (BJEH; BJ-TERT): 0.22; Max % killing (BJEH; BJEH, foreskin fibroblast w/TERT): 22%; EC50 (BJEH; Homo sapiens, BJeH): 10 µM; Erastin Sensitivity (maximum percent killing, as fraction) (BJELR; BJ-TERT/LT/ST/RAS^V12): 1.00; Max % killing (BJELR; BJELR, foreskin fibroblasts w/TERT, LT, ST, RAS): 100%; EC50 (BJELR; Homo sapiens, BJeLR): 6 µM; Erastin Sensitivity (maximum percent killing, as fraction) (HT1080; HT 1080): 0.98; Max % killing (HT1080; HT1080, Fibrosarcoma): 98%; EC50 (HT1080; Homo sapiens, HT-1080, HT1080): 2 µM; cells with loss of mitochondrial membrane potential [1]: > 70%; Cell death (%) [2]: 100%; Caspase-3 cleavage (Caspase-3): not cleaved; VDAC3 protein level (VDAC2, VDAC3; after 8 hours of erastin treatment): no longer detectable; VDAC2 protein level (VDAC2, VDAC3; after 10 hours of erastin treatment): undetectable
